Measurements from patent US7074789B2, “Kinase inhibitors” (Amgen Inc., priority 1999, dated 2006).
Read-outs that look alike come from different tables or passages of the source.

How the values were obtained:
Assay type in all cases: biochemical
Lck = molecular target: T1, Lck (Homo sapiens, UniProt P06239); assay: Kinase inhibition assay (33P transfer), Lck; conditions: read-out: Lck-1
T1 construct: Kinases are expressed as either kinase domains or full length constructs; made in house
Text: (§1) The inhibitor compounds described herein are screened in the following manner. Kinases suitable for use in the following protocol to determine kinase activity of the compounds described herein include, -but are not limited to: Lck, Lyn, Src, Fyn, Syk, Zap-70, Itk, Tec, Btk, EGFR, ErbB2, Kdr, Flt-1, Flt-3, Tek, c-Met, InsR, and AKT.
(§2) Kinases are expressed as either kinase domains or full length constructs fused to glutathione S-transferase (GST) or polyHistidine tagged fusion proteins in either E. colior Baculovirus-High Five expression systems. […] In some instances, kinases are co-expressed or mixed with purified or partially purified regulatory polypeptides prior to measurement of activity.
(§3) Briefly, The transfer of ^33PO4 from ATP to the synthetic substrates poly(Glu, Tyr) 4:1 or poly(Arg, Ser) 3:1 attached to the bioactive surface of microtiter plates serves as the basis to evaluate enzyme activity. After an incubation period, the amount of phosphate transferred is measured by first washing the plate with 0.5% phosphoric acid, adding liquid scintillant, and then counting in a liquid scintillation detector.

Zap-70 = molecular target: T2, Zap-70 (Homo sapiens, UniProt P43403); assay: Kinase inhibition assay (33P transfer), Zap-70; conditions: read-out: Zap-1
T2 construct: Kinases are expressed as either kinase domains or full length constructs; made in house
T2 sequence (P43403 1-619): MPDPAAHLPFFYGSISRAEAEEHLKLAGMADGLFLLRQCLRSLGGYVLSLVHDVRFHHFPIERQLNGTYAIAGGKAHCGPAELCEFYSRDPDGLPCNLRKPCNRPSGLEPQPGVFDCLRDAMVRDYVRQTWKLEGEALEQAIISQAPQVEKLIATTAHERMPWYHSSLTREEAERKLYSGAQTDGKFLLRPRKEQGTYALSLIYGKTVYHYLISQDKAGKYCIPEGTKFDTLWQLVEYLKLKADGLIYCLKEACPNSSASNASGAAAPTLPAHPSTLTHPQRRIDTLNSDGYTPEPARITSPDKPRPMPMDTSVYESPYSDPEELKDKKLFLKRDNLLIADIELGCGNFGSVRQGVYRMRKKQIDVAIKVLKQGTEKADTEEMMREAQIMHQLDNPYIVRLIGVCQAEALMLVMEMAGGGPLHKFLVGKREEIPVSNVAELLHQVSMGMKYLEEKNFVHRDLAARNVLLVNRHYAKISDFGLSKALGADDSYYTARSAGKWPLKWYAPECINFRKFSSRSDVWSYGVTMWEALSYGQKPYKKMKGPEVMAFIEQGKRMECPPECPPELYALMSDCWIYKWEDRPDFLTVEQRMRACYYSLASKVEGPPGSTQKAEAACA
Text: as §1, §2, §3

Itk = molecular target: T3, Itk (Homo sapiens, UniProt Q08881); assay: Kinase inhibition assay (33P transfer), Itk; conditions: read-out: Itk-1
T3 construct: Kinases are expressed as either kinase domains or full length constructs; made in house
T3 sequence (Q08881 1-620): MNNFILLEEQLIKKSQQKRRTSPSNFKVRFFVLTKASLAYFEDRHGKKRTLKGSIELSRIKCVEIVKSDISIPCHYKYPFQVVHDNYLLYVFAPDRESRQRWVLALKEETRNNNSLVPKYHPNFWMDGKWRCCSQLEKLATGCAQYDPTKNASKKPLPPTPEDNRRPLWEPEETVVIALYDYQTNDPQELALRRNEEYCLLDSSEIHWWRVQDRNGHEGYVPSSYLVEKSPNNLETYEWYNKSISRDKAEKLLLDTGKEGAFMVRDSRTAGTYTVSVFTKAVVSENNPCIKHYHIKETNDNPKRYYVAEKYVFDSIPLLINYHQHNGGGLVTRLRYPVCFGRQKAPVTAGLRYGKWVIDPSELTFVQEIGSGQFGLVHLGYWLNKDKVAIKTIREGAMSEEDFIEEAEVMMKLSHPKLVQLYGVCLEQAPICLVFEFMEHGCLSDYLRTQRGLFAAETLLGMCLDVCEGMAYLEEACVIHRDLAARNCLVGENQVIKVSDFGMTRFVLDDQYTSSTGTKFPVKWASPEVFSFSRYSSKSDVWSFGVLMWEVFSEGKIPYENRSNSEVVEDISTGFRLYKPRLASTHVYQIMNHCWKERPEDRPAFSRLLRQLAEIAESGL
Text: as §1
(§4) Kinases are expressed as either kinase domains or full length constructs fused to glutathione S-transferase (GST) or polyHistidine tagged fusion proteins in either E. colior Baculovirus-High Five expression systems. They are purified to near homogeneity by affinity chromatography essentially as previously described (Lehr et al., 1996; Gish et al., 1995). In some instances, kinases are co-expressed or mixed with purified or partially purified regulatory polypeptides prior to measurement of activity.
as §3, with “Kinase activity and inhibition are measured essentially by established protocols (Braunwalder et al., 1996). Briefly,” for “Briefly,”, “detector. The IC50 is determined by the concentration of compound that causes a 50% reduction in the amount of […] incorporated onto the substrate bound to the plate.” for “detector.”

EGFR = molecular target: T4, EGFR (Homo sapiens, UniProt P00533); assay: Kinase inhibition assay (33P transfer), EGFR; conditions: Table 2, kinase inhibition class; read-out: EGFR-1
T4 construct: Kinases are expressed as either kinase domains or full length constructs; made in house
T4 sequence (P00533 25-1210, species assumed): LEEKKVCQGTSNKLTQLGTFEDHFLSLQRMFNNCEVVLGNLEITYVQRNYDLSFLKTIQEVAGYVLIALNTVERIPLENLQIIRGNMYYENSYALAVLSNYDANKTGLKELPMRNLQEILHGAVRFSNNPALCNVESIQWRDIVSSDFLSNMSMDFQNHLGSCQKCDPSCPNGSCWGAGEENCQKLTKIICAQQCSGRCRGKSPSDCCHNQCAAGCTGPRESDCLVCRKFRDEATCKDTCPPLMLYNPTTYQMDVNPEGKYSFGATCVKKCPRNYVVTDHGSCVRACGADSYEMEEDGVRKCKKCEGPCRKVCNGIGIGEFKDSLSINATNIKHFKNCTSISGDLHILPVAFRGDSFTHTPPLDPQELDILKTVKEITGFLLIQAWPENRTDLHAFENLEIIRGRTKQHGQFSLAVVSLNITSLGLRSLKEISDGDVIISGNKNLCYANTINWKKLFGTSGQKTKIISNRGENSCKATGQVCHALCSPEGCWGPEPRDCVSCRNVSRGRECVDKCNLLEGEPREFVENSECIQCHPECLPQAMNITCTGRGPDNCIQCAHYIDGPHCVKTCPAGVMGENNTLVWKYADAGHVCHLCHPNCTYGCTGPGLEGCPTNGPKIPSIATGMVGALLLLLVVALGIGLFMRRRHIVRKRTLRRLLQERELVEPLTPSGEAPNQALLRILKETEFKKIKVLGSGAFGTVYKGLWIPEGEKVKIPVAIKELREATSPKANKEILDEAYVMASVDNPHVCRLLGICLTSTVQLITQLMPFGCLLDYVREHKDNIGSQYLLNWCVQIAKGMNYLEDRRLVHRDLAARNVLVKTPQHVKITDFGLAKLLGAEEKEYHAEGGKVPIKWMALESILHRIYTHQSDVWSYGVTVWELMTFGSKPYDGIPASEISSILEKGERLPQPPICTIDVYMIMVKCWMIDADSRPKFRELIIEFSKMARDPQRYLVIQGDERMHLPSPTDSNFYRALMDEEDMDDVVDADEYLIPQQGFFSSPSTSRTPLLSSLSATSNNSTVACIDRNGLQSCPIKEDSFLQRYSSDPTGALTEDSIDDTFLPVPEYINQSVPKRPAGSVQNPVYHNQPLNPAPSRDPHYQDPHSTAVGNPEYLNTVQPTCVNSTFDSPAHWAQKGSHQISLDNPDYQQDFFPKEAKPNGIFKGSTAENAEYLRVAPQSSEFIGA
Text: as §1, §4
as §3, with “Kinase activity and inhibition are measured essentially by established protocols (Braunwalder et al., 1996). Briefly,” for “Briefly,”, “detector. The IC50 is determined by the concentration of compound that causes a 50% reduction in the amount of […] incorporated onto the substrate bound to the plate.” for “detector.”

Kdr = molecular target: T5, Kdr (Homo sapiens, UniProt P35968); assay: Kinase inhibition assay (33P transfer), Kdr; conditions: read-out: KDR-1
T5 construct: Kinases are expressed as either kinase domains or full length constructs; made in house
T5 sequence (P35968 20-1356, species assumed): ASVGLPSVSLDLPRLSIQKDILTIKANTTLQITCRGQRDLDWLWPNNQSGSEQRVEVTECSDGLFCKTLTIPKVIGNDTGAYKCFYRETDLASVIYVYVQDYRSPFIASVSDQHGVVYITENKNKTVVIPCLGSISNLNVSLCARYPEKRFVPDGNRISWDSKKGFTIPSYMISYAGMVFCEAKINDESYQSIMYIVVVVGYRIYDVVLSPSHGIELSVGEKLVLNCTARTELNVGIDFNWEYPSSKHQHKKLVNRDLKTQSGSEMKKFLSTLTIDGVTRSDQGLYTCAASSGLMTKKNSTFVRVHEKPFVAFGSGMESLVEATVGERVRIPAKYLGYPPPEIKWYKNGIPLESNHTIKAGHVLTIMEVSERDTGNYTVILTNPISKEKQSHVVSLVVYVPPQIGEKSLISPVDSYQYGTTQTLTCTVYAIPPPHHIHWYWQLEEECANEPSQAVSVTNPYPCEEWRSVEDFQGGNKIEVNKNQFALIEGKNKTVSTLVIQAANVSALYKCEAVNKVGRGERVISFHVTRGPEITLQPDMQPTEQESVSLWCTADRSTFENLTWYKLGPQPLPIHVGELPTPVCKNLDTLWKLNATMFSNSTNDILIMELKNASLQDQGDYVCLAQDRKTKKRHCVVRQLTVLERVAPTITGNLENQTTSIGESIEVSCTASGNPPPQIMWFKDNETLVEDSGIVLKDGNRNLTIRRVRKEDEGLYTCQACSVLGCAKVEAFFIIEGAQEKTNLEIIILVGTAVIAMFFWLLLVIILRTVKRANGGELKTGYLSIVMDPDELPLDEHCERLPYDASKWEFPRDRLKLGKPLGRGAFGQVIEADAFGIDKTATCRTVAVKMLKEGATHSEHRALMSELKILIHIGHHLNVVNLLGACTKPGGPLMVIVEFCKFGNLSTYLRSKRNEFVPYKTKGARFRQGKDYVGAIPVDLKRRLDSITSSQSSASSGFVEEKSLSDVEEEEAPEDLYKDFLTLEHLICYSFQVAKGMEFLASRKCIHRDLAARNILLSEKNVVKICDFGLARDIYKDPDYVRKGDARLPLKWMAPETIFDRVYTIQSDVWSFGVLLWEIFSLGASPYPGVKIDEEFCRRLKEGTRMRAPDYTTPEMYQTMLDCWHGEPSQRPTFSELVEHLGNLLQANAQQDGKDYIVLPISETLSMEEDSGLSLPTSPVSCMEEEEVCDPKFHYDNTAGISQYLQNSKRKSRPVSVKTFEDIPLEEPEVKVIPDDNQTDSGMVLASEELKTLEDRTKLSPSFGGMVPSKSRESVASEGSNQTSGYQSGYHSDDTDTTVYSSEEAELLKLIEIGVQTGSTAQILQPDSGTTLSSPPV
Text: as §1, §2, §3

c-Met = molecular target: T6, c-Met (Homo sapiens, UniProt P08581); assay: Kinase inhibition assay (33P transfer), c-Met; conditions: Table 2, kinase inhibition class; read-out: Met-1
T6 construct: Kinases are expressed as either kinase domains or full length constructs; made in house
T6 sequence (P08581 25-1390): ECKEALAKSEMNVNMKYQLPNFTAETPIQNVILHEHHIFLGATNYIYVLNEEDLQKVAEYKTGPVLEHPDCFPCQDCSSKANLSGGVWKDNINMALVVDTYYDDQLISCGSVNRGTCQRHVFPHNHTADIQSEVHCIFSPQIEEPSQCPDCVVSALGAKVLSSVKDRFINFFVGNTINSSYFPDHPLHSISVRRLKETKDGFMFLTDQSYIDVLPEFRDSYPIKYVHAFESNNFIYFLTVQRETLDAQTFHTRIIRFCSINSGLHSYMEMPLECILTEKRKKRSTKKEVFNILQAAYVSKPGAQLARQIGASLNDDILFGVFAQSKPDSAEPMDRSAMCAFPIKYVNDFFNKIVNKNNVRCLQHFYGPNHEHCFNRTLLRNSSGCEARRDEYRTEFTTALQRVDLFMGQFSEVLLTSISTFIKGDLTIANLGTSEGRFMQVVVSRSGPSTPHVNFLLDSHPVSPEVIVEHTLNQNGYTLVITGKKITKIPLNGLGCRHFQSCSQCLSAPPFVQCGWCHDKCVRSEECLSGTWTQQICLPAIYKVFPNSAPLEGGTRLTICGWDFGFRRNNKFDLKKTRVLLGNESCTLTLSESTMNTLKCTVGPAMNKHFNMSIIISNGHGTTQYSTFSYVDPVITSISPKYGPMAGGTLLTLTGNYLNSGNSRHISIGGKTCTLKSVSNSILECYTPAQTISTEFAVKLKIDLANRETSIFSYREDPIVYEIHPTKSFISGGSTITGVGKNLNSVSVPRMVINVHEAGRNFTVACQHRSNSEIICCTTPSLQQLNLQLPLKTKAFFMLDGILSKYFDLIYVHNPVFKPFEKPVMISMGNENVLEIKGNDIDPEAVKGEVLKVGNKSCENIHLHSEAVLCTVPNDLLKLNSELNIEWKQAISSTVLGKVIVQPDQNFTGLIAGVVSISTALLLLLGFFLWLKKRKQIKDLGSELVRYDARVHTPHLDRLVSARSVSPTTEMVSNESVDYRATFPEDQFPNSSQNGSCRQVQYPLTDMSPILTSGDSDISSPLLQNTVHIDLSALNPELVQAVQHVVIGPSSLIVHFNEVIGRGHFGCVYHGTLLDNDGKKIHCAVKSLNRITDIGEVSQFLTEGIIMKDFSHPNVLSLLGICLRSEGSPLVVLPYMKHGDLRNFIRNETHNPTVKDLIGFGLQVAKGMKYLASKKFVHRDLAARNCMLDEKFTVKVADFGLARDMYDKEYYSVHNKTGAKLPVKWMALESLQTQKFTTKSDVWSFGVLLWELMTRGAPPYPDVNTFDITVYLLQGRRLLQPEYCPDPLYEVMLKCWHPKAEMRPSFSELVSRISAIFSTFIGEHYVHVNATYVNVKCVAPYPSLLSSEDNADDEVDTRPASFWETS
Text: as §1, §4
as §3, with “Kinase activity and inhibition are measured essentially by established protocols (Braunwalder et al., 1996). Briefly,” for “Briefly,”, “detector. The IC50 is determined by the concentration of compound that causes a 50% reduction in the amount of […] incorporated onto the substrate bound to the plate.” for “detector.”

AKT = molecular target: T7, AKT (Homo sapiens, UniProt Q9Y243); assay: Kinase inhibition assay (33P transfer), AKT; conditions: Table 2, kinase inhibition class; read-out: AKT3-1
T7 construct: Kinases are expressed as either kinase domains or full length constructs; made in house
T7 sequence (Q9Y243 whole entry, the tested form may be a part): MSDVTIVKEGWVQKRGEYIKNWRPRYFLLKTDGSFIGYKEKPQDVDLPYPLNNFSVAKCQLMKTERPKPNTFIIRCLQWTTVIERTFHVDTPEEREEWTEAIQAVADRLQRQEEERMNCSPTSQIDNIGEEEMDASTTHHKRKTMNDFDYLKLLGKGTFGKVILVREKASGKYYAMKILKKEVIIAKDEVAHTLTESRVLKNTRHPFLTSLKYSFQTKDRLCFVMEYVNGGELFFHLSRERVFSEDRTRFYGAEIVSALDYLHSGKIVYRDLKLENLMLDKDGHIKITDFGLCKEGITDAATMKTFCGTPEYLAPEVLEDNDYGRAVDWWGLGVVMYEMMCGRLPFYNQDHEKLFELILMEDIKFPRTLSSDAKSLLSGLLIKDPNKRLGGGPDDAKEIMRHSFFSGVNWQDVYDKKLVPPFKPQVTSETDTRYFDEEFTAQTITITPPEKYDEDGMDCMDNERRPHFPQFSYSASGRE
Text: as §1, §2, §3

T1 sequence (P06239 whole entry, species assumed, the tested form may be a part): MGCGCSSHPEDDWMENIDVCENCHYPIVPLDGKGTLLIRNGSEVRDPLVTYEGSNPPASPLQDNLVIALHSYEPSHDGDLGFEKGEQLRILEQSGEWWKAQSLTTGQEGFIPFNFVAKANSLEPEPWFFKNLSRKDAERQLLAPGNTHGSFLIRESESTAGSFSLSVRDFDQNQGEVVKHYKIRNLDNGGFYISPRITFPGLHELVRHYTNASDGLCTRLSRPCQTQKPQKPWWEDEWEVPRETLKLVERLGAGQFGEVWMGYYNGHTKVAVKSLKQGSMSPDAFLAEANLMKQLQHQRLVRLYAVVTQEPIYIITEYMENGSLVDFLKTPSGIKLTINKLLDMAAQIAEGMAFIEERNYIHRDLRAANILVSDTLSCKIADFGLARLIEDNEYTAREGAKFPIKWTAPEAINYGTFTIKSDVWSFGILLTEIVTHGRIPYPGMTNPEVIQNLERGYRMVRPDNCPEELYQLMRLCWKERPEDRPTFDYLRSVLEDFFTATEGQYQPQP

| SMILES | IC50 (Lck; Table 3) | IC50 (Zap-70; Table 3) | IC50 (Itk; Table 3) | IC50 (EGFR) | IC50 (Kdr; Table 3) | IC50 (c-Met) | IC50 (AKT) | IC50 (Lck) | IC50 (Zap-70) | IC50 (Itk) | IC50 (Kdr) |
| --- | --- | --- | --- | --- | --- | --- | --- | --- | --- | --- | --- |
| O=C(Nc1ccc(Nc2ncnc(-n3c(=O)[nH]c4ccccc43)n2)cc1)O[C@@H]1CCOC1 [Compound 454] | 0.923 to 5.54 µM | > 10.4 µM | > 10.4 µM | > 10.4 µM | 0.923 to 5.54 µM | 5.54 to 8.08 µM | > 10.4 µM |  |  |  |  |
| O=C(Nc1cccc(Nc2ncnc(-n3c(=O)[nH]c4ccccc43)n2)c1)O[C@@H]1CCOC1 [Compound 455] | > 10.4 µM | > 10.4 µM | > 10.4 µM | 5.54 to 8.08 µM | 0.923 to 5.54 µM | > 10.4 µM | > 10.4 µM |  |  |  |  |
| NS(=O)(=O)c1ccc(CNc2ncnc(-n3c(=O)[nH]c4ccccc43)n2)cc1 [Compound 456] | > 11.3 µM | > 11.3 µM | > 11.3 µM | > 11.3 µM | > 11.3 µM | > 11.3 µM | > 11.3 µM |  |  |  |  |
| O=c1[nH]c2ccccc2n1-c1ncnc(Nc2cccc(Cl)c2)n1 [Compound 457] | 10.3 to 13.3 µM | > 13.3 µM | > 13.3 µM | 7.08 to 10.3 µM | 1.18 to 7.08 µM | > 13.3 µM | > 13.3 µM |  |  |  |  |
| O=c1[nH]c2ccccc2n1-c1ncnc(Nc2ccc(Cl)cc2)n1 [Compound 458] | > 13.3 µM | > 13.3 µM | > 13.3 µM | > 13.3 µM | 1.18 to 7.08 µM | 7.08 to 10.3 µM | > 13.3 µM |  |  |  |  |
| O=c1[nH]c2ccccc2n1-c1ncnc(Nc2ccc(F)c(Cl)c2)n1 [Compound 459] | > 12.6 µM | > 12.6 µM | > 12.6 µM | > 12.6 µM | 1.12 to 6.73 µM | 6.73 to 9.81 µM | > 12.6 µM |  |  |  |  |
| C#Cc1cccc(Nc2ncnc(-n3c(=O)[nH]c4ccccc43)n2)c1 [Compound 460] | 10.7 to 13.7 µM | > 13.7 µM | > 13.7 µM | 1.22 to 7.31 µM | 1.22 to 7.31 µM | 7.31 to 10.7 µM | > 13.7 µM |  |  |  |  |
| O=c1[nH]c2ccccc2n1-c1ncnc(Nc2cccc(OC(F)(F)F)c2)n1 [Compound 461] | > 11.6 µM | > 11.6 µM | > 11.6 µM | > 11.6 µM | > 11.6 µM | > 11.6 µM | > 11.6 µM |  |  |  |  |
| COc1cc(Nc2ncnc(Nc3nc(C)cs3)n2)cc(OC)c1OC [Compound 468] | > 12 µM | > 12 µM | > 12 µM | 1.07 to 6.41 µM | 1.07 to 6.41 µM | > 12 µM | > 12 µM |  |  |  |  |
| COc1cc(Nc2ncnc(Nc3nc4ccccc4s3)n2)cc(OC)c1OC [Compound 469] |  |  |  | > 11 µM |  | > 11 µM | > 11 µM | > 11 µM | > 11 µM | > 11 µM | 0.975 to 5.85 µM |
| COc1ccc(-c2cn[nH]c2Nc2ncnc(Nc3cc(OC)c(OC)c(OC)c3)n2)cc1OC [Compound 470] |  |  |  | 7.3 to 9.38 µM |  | > 9.38 µM | > 9.38 µM | 5.01 to 7.3 µM | > 9.38 µM | 0.834 to 5.01 µM | > 9.38 µM |
| COc1cc(Nc2ncnc(-c3ccc(NCc4ccccc4)nc3)n2)cc(OC)c1OC [Compound 471] |  |  |  | > 10.1 µM |  | > 10.1 µM | > 10.1 µM | > 10.1 µM | > 10.1 µM | > 10.1 µM | > 10.1 µM |
| COc1cc(Nc2ncnc(-c3ccc(NCCCN)nc3)n2)cc(OC)c1OC [Compound 472] |  |  |  | > 10.9 µM |  | > 10.9 µM | > 10.9 µM | > 10.9 µM | > 10.9 µM | > 10.9 µM | 0.972 to 5.83 µM |
| CC(=O)Nc1ccc(Nc2ncnc(-n3c(N)nc4ccccc43)n2)cc1 [Compound 475] |  |  |  | > 12.5 µM |  | 6.66 to 9.71 µM | > 12.5 µM | 1.11 to 6.66 µM | > 12.5 µM | 1.11 to 6.66 µM | < 1.11 µM |
| COc1cc(Nc2ncnc(-n3c(N)nc4ccccc43)n2)cc(OC)c1 [Compound 477] |  |  |  | > 12.4 µM |  | > 12.4 µM | > 12.4 µM | 1.1 to 6.6 µM | > 12.4 µM | 1.1 to 6.6 µM | < 1.1 µM |
| CCOC(=O)C(Cc1cccc(Nc2ncnc(Nc3cc(-c4ccco4)n[nH]3)n2)c1)(NC(C)=O)C(=O)OCC [Compound 481] |  |  |  | > 8.2 µM |  | > 8.2 µM | > 8.2 µM | > 8.2 µM | > 8.2 µM | 6.38 to 8.2 µM | 0.729 to 4.38 µM |
| O=c1[nH]c2ccccc2n1-c1ncnc(Nc2ccccc2)n1 [Compound 482] |  |  |  | > 14.8 µM |  | > 14.8 µM | > 14.8 µM | > 14.8 µM | > 14.8 µM | > 14.8 µM | < 1.31 µM |
